Experimental data published in ChEMBL document CHEMBL5241097, “Synthetically-tailored and nature-derived dual COX-2/5-LOX inhibitors: Structural aspects and SAR” (Eur J Med Chem, 2021).

What was measured:
[1] = target: T1, Polyunsaturated fatty acid 5-lipoxygenase (Homo sapiens, UniProt P09917); assay: Inhibition of 5-LOX (unknown origin) by enzyme immune assay
T1 sequence (P09917 whole entry): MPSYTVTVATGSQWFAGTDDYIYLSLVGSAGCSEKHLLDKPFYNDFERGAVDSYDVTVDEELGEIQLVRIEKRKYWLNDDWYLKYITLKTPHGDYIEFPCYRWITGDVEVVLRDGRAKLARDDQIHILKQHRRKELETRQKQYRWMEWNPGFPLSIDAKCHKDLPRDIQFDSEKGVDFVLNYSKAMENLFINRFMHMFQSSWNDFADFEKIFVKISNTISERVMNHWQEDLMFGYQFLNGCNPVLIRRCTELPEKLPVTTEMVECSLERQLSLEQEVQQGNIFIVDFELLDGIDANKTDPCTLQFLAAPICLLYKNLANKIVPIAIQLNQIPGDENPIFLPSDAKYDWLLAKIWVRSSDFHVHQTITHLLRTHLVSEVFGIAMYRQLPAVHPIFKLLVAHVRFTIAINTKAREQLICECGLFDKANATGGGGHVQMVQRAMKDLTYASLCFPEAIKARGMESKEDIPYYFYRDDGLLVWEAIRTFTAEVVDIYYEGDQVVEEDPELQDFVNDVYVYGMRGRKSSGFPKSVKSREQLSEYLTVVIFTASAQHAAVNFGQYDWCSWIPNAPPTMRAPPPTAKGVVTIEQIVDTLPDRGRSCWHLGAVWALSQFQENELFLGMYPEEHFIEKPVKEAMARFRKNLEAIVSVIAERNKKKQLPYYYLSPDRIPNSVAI

[2] = target: T1, Polyunsaturated fatty acid 5-lipoxygenase; assay: Inhibition of 5-LOX (unknown origin)
[3] = organism: Homo sapiens; assay: Selectivity index, ratio of IC50 for inhibition of human COX1 to IC50 for inhibition of human COX2
[4] = target: T2, Prostaglandin G/H synthase 2 (Homo sapiens, UniProt P35354); assay: Inhibition of COX-2 (unknown origin) by colorimetric method
T2 sequence (P35354 whole entry): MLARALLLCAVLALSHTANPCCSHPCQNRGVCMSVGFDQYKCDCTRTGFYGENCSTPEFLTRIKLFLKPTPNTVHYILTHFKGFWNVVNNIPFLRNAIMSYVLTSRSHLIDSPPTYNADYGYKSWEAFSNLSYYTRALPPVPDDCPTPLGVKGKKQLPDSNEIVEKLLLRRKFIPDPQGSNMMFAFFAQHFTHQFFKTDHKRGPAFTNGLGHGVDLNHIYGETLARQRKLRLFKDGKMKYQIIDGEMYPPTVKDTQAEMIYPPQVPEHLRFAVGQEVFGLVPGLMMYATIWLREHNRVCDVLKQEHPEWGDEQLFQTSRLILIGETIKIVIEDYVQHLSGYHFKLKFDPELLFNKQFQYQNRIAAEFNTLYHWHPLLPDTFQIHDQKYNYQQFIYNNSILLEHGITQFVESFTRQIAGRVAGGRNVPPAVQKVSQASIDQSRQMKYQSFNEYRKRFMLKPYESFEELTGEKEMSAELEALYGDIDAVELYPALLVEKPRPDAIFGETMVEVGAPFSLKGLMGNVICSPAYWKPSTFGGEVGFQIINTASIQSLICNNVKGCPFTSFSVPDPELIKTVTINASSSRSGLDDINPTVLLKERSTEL

[5] = test system: Rattus norvegicus; assay: Antiinflammatory activity in po dosed Sprague-Dawley rat assessed as reduction in carragenan-induced paw edema and measured after 4 hrs by vernier caliper method; type: functional; set-up: scale not given: the % may be the effect or the level left
[6] = target: T3, Prostaglandin G/H synthase 1 (Homo sapiens, UniProt P23219); assay: Inhibition of recombinant human COX-1 using arachidonic acid as substrate by ELISA
[7] = target: T2, Prostaglandin G/H synthase 2; assay: Inhibition of recombinant human COX-2 using arachidonic acid as substrate by ELISA
[8] = target: T1, Polyunsaturated fatty acid 5-lipoxygenase; assay: Inhibition of 5-LOX (unknown origin) by fluorometric analysis
[9] = target: T2, Prostaglandin G/H synthase 2; assay: Inhibition of recombinant human COX-2 using arachidonic acid as substrate preincubated for 5 mins followed by substrate addition and measured after 20 mins by ELISA
[10] = target: T1, Polyunsaturated fatty acid 5-lipoxygenase; assay: Inhibition of recombinant human 5-LOX using arachidonic acid as substrate preincubated for 10 mins followed by substrate addition and measured after 10 mins by ELISA
[11] = target: T2, Prostaglandin G/H synthase 2; assay: Inhibition of COX-2 (unknown origin) using arachidonic acid as substrate preincubated for 5 mins followed by substrate addition and measured after 20 mins by colorimetric assay
[12] = Inhibition of soybean 5-LOX using arachidonic acid as substrate preincubated for 5 mins followed by substrate addition and measured after 5 mins by microplate spectrophotometric analysis; set-up: species or system Glycine max
[13] = test system: DU-145; assay: Antiproliferative activity against human DU-145 cells assessed as reduction in cell viability incubated for 48 hrs by MTT assay; type: functional, cell-based; settings: DU-145, 48 h
[14] = target: T2, Prostaglandin G/H synthase 2; assay: Inhibition of recombinant human COX-2 using arachidonic acid as substrate preincubated for 10 mins followed by substrate addition and measured after 2 mins by ELISA
[15] = target: T1, Polyunsaturated fatty acid 5-lipoxygenase; assay: Inhibition of 5-LOX (unknown origin) using linoleic acid as substrate preincubated for 5 mins followed by substrate addition by spectrophotometric assay
[16] = target: T2, Prostaglandin G/H synthase 2; assay: Inhibition of recombinant human COX-2 by enzyme immune assay
[17] = Selectivity index, ratio IC50 for inhibition of ovine COX-1 to IC50 for inhibition of recombinant human COX-2
[18] = Inhibition of soybean 5-LOX using linoleic acid as substrate by spectrophotometric analysis; set-up: species or system Glycine max
[19] = target: T2, Prostaglandin G/H synthase 2; assay: Inhibition of COX-2 (unknown origin) using arachidonic acid as substrate preincubated for 15 mins followed by substrate addition by colorimetric assay
[20] = target: T2, Prostaglandin G/H synthase 2; assay: Inhibition of COX-2 (unknown origin)
[21] = target: T2, Prostaglandin G/H synthase 2; assay: Inhibition of recombinant human COX-2 using arachidonic acid as substrate preincubated for 10 mins followed by substrate addition and measured after 2 mins by Ellman's reagent based ELISA
[22] = target: T1, Polyunsaturated fatty acid 5-lipoxygenase; assay: Inhibition of recombinant human 5-LOX using arachidonic acid as substrate incubated for 10 mins by spectrophotometric analysis
[23] = target: T3, Prostaglandin G/H synthase 1; assay: Inhibition of human COX-1 using arachidonic acid as substrate preincubated for 10 mins followed by substrate addition and measured after 2 mins by ELISA
[24] = test system: Rattus norvegicus; assay: Antiinflammatory activity in Wistar rat assessed as reduction in carragenan-induced paw edema at 10 mg/kg, po for 7 days followed by carrageenan stimulation and measured upto 6 hrs by vernier caliper method; type: functional; set-up: scale not given: the % may be the effect or the level left; settings: time 7 day
[25] = test system: Rattus norvegicus; assay: Antiinflammatory activity in Wistar rat carragenan-induced paw edema model assessed as reduction in edema thickness at 50 mg/kg, po and measured after 2 hrs; type: functional; set-up: scale not given: the % may be the effect or the level left
[26] = test system: Rattus norvegicus; assay: Antiinflammatory activity in carragenan-induced paw edema rat model assessed as reduction in edema thickness at 28 microg/kg, ip and measured after 4 hrs by digital Vernier caliper analysis; type: functional; set-up: scale not given: the % may be the effect or the level left; settings: dose 28 µg/kg
[27] = target: T2, Prostaglandin G/H synthase 2; assay: Inhibition of COX-2 (unknown origin) using arachidonic acid as substrate preincubated for 5 mins followed by substrate addition by colorimetric assay
[28] = target: T1, Polyunsaturated fatty acid 5-lipoxygenase; assay: Inhibition of 5-LOX (unknown origin) by colorimetric assay

T3 sequence (P23219 whole entry): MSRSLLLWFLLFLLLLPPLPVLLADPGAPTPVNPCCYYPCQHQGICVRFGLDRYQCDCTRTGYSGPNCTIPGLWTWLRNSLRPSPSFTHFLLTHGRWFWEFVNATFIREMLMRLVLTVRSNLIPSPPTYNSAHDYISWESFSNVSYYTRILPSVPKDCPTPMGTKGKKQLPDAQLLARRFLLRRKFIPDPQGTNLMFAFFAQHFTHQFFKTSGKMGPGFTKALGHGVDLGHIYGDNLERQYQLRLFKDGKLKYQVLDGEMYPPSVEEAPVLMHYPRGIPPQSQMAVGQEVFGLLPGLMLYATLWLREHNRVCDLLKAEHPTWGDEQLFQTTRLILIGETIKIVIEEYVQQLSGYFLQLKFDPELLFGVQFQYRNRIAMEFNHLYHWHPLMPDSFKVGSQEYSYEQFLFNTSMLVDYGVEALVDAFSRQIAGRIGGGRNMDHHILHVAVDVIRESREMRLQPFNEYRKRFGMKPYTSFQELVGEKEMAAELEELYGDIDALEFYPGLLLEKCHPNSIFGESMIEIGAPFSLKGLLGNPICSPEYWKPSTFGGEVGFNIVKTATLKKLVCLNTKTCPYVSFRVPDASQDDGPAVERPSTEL

**Q.** With `CC(C)NC(=O)c1cc(N)ccc1O` as the compound, how does the IC50 [1] read?
**A.** 3.41 µM

**Q.** With `N#Cc1c(-c2ccc(Cl)cc2)csc1NC(=O)CN1CCOCC1` as the compound, how does the IC50 [2] read?
**A.** 4.33 µM

**Q.** What about the Ratio IC50 [3] of the same compound?
**A.** 8.37

**Q.** And the IC50 [4]?
**A.** 5.45 µM

**Q.** What about the Activity [5] of the same compound?
**A.** 58.77%

**Q.** For `COc1cccc(/C=c2\c(=O)[nH]n3c(=O)c4ccccc4nc23)c1`, which IC50 [6] is on record?
**A.** 1.48 µM

**Q.** What about the IC50 [7] of the same compound?
**A.** 0.488 µM

**Q.** And the IC50 [8]?
**A.** 0.6 µM

**Q.** With `COc1cc(O)cc(/C=C/c2ccc(O)cc2)c1` as the compound, how does the IC50 [9] read?
**A.** 0.25 µM

**Q.** And the IC50 [10]?
**A.** 4.01 µM

**Q.** For `CCc1ccc(-c2ccc(-n3cc(CNC(=O)C(=O)c4c[nH]c5ccccc45)nn3)cc2)cc1`, which IC50 [11] is on record?
**A.** 0.12 µM

**Q.** What about the IC50 [12] of the same compound?
**A.** 7.73 µM

**Q.** What about the IC50 [13] of the same compound?
**A.** 8.17 µM

**Q.** Which results are given for `O=C(/N=C1\SC=C(c2ccc([N+](=O)[O-])cc2)C1c1ccccc1)c1cccc2ccccc12` (centres undefined)?
**A.** IC50 [14]: 0.08 µM; Ratio IC50 [3]: 90; IC50 [15]: 0.36 µM

**Q.** With `O=C(NC1CCCCC1)c1cc(/N=C/c2cc(O)ccc2O)ccc1O` as the compound, how does the IC50 [16] read?
**A.** 0.11 µM

**Q.** What about the Ratio IC50 [17] of the same compound?
**A.** 120

**Q.** And the IC50 [1]?
**A.** 11.3 µM

**Q.** Which IC50 [10] does the source give for `Oc1cc(O)cc(/C=C/c2ccc(O)c(O)c2)c1` [PICEATANNOL] here?
**A.** 0.39 µM

**Q.** With `Cc1c(C(=O)N2CCN(c3ccccc3)CC2)nc2ccc(Cl)cc2c1O` as the compound, how does the Ratio IC50 [3] read?
**A.** 7.61

**Q.** What about the IC50 [15] of the same compound?
**A.** 5.91 µM

**Q.** Which IC50 [18] does the source give for `O=C(c1ccc(-c2nc(CSc3nc4ccccc4s3)no2)cc1)N1CCOCC1` here?
**A.** 5.6 µM

**Q.** And the IC50 [19]?
**A.** 5 µM

**Q.** With `O=Cc1ccc(O)c(O)c1` [PROTOCATECHUALDEHYDE] as the compound, how does the IC50 [20] read?
**A.** 19.7 µM

**Q.** For `Cc1ccc(-c2ncc(Cl)cc2-c2ccc(S(C)(=O)=O)cc2)cn1`, which Ratio IC50 [3] is on record?
**A.** 91.3

**Q.** Which IC50 [21] does the source give for `CC1=CCCC2C1(C)CCC(C)C2(C)CCC1=CC(=O)OC1O` (centres undefined) here?
**A.** 10.3 µM

**Q.** What about the IC50 [22] of the same compound?
**A.** 14.4 µM

**Q.** What does the source list for `CC1=CCCC2C1(C)CCC(C)C2(C)CC/C(=C\C(=O)O)CO` (centres undefined)?
**A.** IC50 [21]: 12.7 µM; IC50 [22]: 30.5 µM

**Q.** Which IC50 [23] does the source give for `O=C(c1sc(N(c2ccccc2)c2ccccc2)nc1-c1ccc([N+](=O)[O-])cc1)c1cccc2ccccc12` here?
**A.** 8.06 µM

**Q.** And the IC50 [14]?
**A.** 0.07 µM

**Q.** What about the Ratio IC50 [3] of the same compound?
**A.** 115

**Q.** And the Activity [24]?
**A.** 63%

**Q.** What about the IC50 [15] of the same compound?
**A.** 0.29 µM

**Q.** With `CON(C)C(=O)c1ccc(-c2nc(CSc3nc4ccccc4s3)no2)cc1` as the compound, how does the IC50 [18] read?
**A.** 5.1 µM

**Q.** What about the IC50 [19] of the same compound?
**A.** 7.6 µM

**Q.** For `Cc1ccc(-c2cc(C(F)(F)F)nn2-c2ccc(S(N)(=O)=O)cc2)cc1` [CELECOXIB], which Activity [5] is on record?
**A.** 73.56%

**Q.** What about the Activity [25] of the same compound?
**A.** 15.7%

**Q.** Which Activity [26] does the source give for `CCCCCCNC(=O)c1cc(NCc2cc(O)ccc2O)ccc1O` here?
**A.** 40.05%

**Q.** What about the IC50 [16] of the same compound?
**A.** 0.1 µM

**Q.** What about the Ratio IC50 [17] of the same compound?
**A.** 145

**Q.** And the IC50 [1]?
**A.** 11.9 µM

**Q.** What does the source list for `N=C1/C(=N\Nc2ccc(S(N)(=O)=O)cc2)C(N)=NN1c1ccc(S(N)(=O)=O)cc1`?
**A.** IC50 [27]: 0.92 µM; IC50 [28]: 2.78 µM

**Q.** Which IC50 [9] does the source give for `COc1cc(/C=C/c2ccc(O)cc2)cc(OC)c1` [PTEROSTILBENE] here?
**A.** 5.99 µM

**Q.** What about the IC50 [10] of the same compound?
**A.** 1.63 µM

**Q.** What does the source list for `CCc1cc(OC)c(OC)c(OC)c1`?
**A.** IC50 [14]: 0.18 µM; Ratio IC50 [3]: 668
